Results on three compounds are retold here after patent US8940909B2, “Indicator platform” (Biosynth AG, priority 2009, dated 2015).

For data set [1], the system named is Shigella boydii 135. Put plainly: IO staining of colonies of beta-D-galactosidase positive/negative bacteria (Table IVb). Type of data set: cell-based. To be noted: Shigella boydii strain 135, b-gal −; 24 h on Nutrient Agar, 150 mg/l indicator, 100 mg/l IPTG.
Data set [2] has as its system Pseudomonas aeruginosa 168. The data set is described as above. Type of data set: cell-based. Conditions: Pseudomonas aeruginosa strain 168, b-gal −, 24 h on Nutrient Agar, 150 mg/l indicator, 100 mg/l IPTG; for F: Fluorescence of colonies: footnote 1: blue autofluorescence.
The subject of data set [3] is beta-galactosidase positive Eschericha coli (NM1). Put plainly: IO staining of bacterial colonies on Nutrient Agar (color, fluorescence, localization, growth). On C: Color of colonies (strength): key: −: absent; +/−: weak; +: strong; ++: very strong. On F: Fluorescence of colonies (strength): key: −: absent; +/−: weak; +: strong; ++: very strong. On G: Growth of colonies: key: −: absent; +/−: weak; +: strong; ++: very strong. On L: Localization of stain on colonies: key: −: absent; +/−: weak; +: strong; ++: very strong. Type of data set: cell-based, E. coli. Conditions: 150 mg/l substrate and 100 mg/l IPTG. As for the experimental part: (§1) Nutrient Agar (5 g/l peptone, 5 g/l NaCl, 2 g/l yeast extract, 1 g/l beef extract, 13 g/l agar, pH 7.4) was autoclaved and allowed to cool to 50° C. Then indicators were added to final concentrations of 150 mg/l (from a 20 mg/ml stock solution in DMF).
(§2) Optionally IPTG was added to 100 mg/l (from a 100 mg/ml stock solution in H2O) and plates were poured. Agar plates were inoculated with cultures of beta-galactosidase positive Eschericha coli (NM1) or beta-galactosidase negative Salmonella enteritidis (RKI 05/07992) (pre-grown on nutrient broth for 8-18 hours) and incubated at 37° C. Plates were inspected at 16, 20, 24 and 48 hours and pictures were recorded at 18, 24, and 48 hours with a Digistore 2 Image documentation system (CAMAG) under white light.
(§3) A considerable number of indicators molecules (Table IVa, IVb) and a selection of labile groups (Table IVc) were tested with various microbial species producing different biomarker enzymes (external stimuli, eS). The color of stains ranges from yellow to red.
(§4) Plating media from Example 10 were examined under 366 nm UV irradiation at 16, 20, 24 and 48 hours for fluorescence by means of Digistore 2 Image documentation system (CAMAG). Loops of bacterial cells, grown for 48 hours on Nutrient Agar plates containing 150 mg/l beta-D-galactosidase indicator and 100 mg/l IPTG, were directly streaked into wells of black clear bottom microtiter plates. Fluorescence scans were recorded on a Spectramax M5 (Molecular Devices).

Data set [4] relates to beta-galactosidase negative Salmonella enteritidis (RKI 05/07992). Type of data set: cell-based. To be noted: S. enteritidis (b-gal negative), 24 h, 150 mg/l substrate and 100 mg/l IPTG. As for the experimental part:
as §1, §2, §3, §4

Data set [5] deals with E. coli beta-galactosidase (Escherichia coli, UniProt P00722). The procedure:
Enzymatic reactions were performed in 100 mM Na2PO4 buffer, pH 7.3 containing 1 mM MgCl2 and 670 mg/l enzyme substrate. E. coli beta-galactosidase or K. lactis lactase were added to a final concentration of 1000 U/I or 1500 U/I, respectively. 30 ml reaction volumes were incubated for 5-18 hours at 37° C. with gentle shaking. The reaction product was collected by centrifugation (4400 g, 15 min), pellets were washed with 10 ml H2O and centrifuged again (4400 g, 15 min).

For data set [6], the system named is beta-D-galactosidase positive/negative bacteria. As to the kind of experiment: IO staining of colonies of beta-D-galactosidase positive/negative bacteria (Table IVb), hue named in column head. Type of data set: cell-based. To be noted: hue of fluorescence of stained colonies; 24 h on Nutrient Agar, 150 mg/l indicator, 100 mg/l IPTG.
For data set [7], the system named is enteric bacterial cells. As to the kind of experiment: MDAB staining of bacterial colonies with indicators I4a and I5a on Tryptic Soy Agar, aerobic and anaerobic. Type of data set: cell-based. To be noted: Salmonella manhattan (b-gal −); aR MDAB, equivalents 1:1; TSAYE with 40 mg/100 ml of indicator. The procedure: Tryptic Soy Agar (TSA) with yeast extract (0.6%) was used as the base plating medium. The media were autoclaved at 121° C. for 15 minutes and placed in a 50° C. water bath to cool. Indicators were added to the basal medium at a final concentration of 40 mg/100 ml (from 80 mg/ml stock solutions in DMF). Over night cultures of enteric bacterial cells in Brain Heart Infusion Broth were streaked onto the plates and incubated at 35° C. for 24 hours under aerobic and anaerobic conditions. After incubation, the colonial morphologies on the plates were recorded (Table III).
Weak staining was observed occasionally due to residual oxygen (micro-anaerobic conditions). Under aerobic conditions indigo (IN-stains) generally dominated the effects of MDAB staining. For example indicator system I4a/MDAB stained colonies violet under anaerobic but indigo blue under aerobic conditions.

Data set [8] has as its system Escherichia coli. As to the kind of experiment: IN and IO staining of bacterial colonies under anaerobic conditions. Type of data set: cell-based. Conditions: for D: Diffusion around colonies / G: Growth of colonies / I: Intensity of color / L: Localization on colonies / S: Size of colonies: Nutrient Agar plates, anaerobically incubated with E. coli. The procedure:
Nutrient Agar plates containing 150 mg/l of various substrates and 100 mg/l IPTG were inoculated with Escherichia coli. Plates were put in an anaerobic jar (Anaerojar, Oxoid), an AnaeroGen sachet (Oxoid) was added, the jar was closed and incubated for 24 hours at 37° C.
IN staining cannot be used under anaerobic conditions.

Data set [9] concerns Klebsiella pneumoniae. Put plainly: IO staining of bacterial colonies on Blood Agar plates. On growth: key: −: absent; +/−: weak; +: strong; ++: very strong. Type of data set: cell-based. Conditions: 24 h on Blood Agar, 150 mg/l I21a and 100 mg/l IPTG. The procedure:
Standard commercially available Blood Agar plates were impregnated with 150 mg/l 1-(2-benzoylphenyl)-6-chloro-1H-indol-3-yl-beta-D-galactopyranoside (I21a) and 100 mg/l IPTG. The plate was inoculated with Klebsiella pneumoniae.
IO stain contrasts very well with the agar plate. Further, despite the quenching effect of blood IO fluorescence is fully maintained and readily detectable.

Sequence of E. coli beta-galactosidase (P00722 2-1024): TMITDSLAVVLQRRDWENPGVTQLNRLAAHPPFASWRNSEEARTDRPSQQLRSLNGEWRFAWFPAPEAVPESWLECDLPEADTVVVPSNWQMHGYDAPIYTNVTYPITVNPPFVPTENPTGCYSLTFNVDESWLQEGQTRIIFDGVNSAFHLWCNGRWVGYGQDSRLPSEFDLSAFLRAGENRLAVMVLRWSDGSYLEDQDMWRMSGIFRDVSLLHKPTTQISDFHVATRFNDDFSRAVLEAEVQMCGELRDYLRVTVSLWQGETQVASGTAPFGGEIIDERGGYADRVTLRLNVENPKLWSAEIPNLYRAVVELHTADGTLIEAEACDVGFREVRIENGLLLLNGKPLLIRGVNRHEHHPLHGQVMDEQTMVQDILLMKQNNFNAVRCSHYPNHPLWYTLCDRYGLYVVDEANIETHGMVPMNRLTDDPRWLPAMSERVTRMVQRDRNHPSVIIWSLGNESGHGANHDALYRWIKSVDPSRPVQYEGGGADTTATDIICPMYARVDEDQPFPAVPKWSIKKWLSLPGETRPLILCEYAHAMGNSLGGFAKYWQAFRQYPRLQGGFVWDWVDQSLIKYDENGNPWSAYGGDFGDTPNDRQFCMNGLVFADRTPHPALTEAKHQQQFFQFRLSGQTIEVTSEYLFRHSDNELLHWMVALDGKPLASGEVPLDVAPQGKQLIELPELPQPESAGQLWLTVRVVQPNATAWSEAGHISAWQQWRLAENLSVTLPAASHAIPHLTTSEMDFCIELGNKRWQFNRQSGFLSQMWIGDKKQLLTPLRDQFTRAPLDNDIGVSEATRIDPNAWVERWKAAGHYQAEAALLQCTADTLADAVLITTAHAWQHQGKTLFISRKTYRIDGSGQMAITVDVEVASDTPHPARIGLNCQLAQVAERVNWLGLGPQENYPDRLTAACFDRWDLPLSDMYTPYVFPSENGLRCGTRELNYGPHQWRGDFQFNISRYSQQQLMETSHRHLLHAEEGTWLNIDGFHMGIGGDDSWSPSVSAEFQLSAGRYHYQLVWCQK

For `COc1ccc(C(=O)c2ccccc2-n2cc(O[C@@H]3O[C@H](CO)[C@H](O)[C@H](O)[C@H]3O)c3c(Cl)c(Br)ccc32)c(OC)c1` [Indicator I28a, 5-Bromo-4-chloro-1-[2-(2,4-dimethoxybenzoyl)phenyl]-1H-indol-3-yl-beta-D-galactopyranoside], the “C: Color of colonies” value in data set [1] and in [2] was “−” throughout. The results for the “F: Fluorescence of colonies” value in data set [1] and in [2] were “−” and “+^1”, respectively. The “G: Growth of colonies” value was “+” in [1]; “+” in data set [2]; “+” in data set [3] (E. coli, 24 h). Also, the “F: Fluorescence of colonies (colour)” value in data set [3] (24 h, 366 nm UV) is “(red)”. Further, the “C: Color of colonies (colour of stain)” value in data set [3] (24 h on Nutrient Agar) is recorded as “orange”. Besides, the “L: Localization of stain on colonies” value in data set [3] (E. coli, 24 h) is on record as “+”. Also, the “F: Fluorescence of colonies (strength)” value is given as “+/−” in [3] (E. coli, 24 h, 366 nm UV) and “−” in data set [4] (366 nm UV). The “C: Color of colonies (strength)” value is listed as “+” in [3] (E. coli, 24 h on Nutrient Agar) and “−” in data set [4].

As for “5-Bromo-4-chloro-1H-indol-3-yl-beta-D-galactopyranoside [Indicator I4a, reference compound]”, in [5] (blend with MDAB, absence of oxygen), the “Signal upon incubation with beta-D-galactosidase in the absence of oxygen” value is on record as “pink dye”. Further, the “F: Fluorescence of colonies (hue)” value in [6] is listed as “−”. Besides, in data set [1], the “C: Color of colonies” value is on record as “−”, the “F: Fluorescence of colonies” value is recorded as “−” and the “G: Growth of colonies” value was “+”. Moreover, in data set [2], the “C: Color of colonies” value is “−”, the “G: Growth of colonies” value was “+” and the “F: Fluorescence of colonies” value is “+^1”. Further, in [7], the “colonial morphology, aerobic conditions” value is recorded as “Cream colored colonies” and the “colonial morphology, microaerobic (anaerobic) conditions” value is recorded as “Cream colored colonies”. In addition, the “IN staining under anaerobic conditions” value in data set [8] (E. coli, anaerobic) is listed as “failure”. Further, in [8], the “D: Diffusion around colonies” value is reported as “++”, the “G: Growth of colonies” value is given as “+/−”, the “I: Intensity of color” value is recorded as “+/−” and the “L: Localization on colonies” value is “−”. In addition, the “S: Size of colonies” value in data set [8] is “pinpoint”.

Take `O=C(c1ccccc1)c1ccccc1-n1cc(O[C@@H]2O[C@H](CO)[C@H](O)[C@H](O)[C@H]2O)c2ccc(Cl)cc21` [Indicator I21a, 1-(2-Benzoylphenyl)-6-chloro-1H-indol-3-yl-beta-D-galactopyranoside]: in [5] (24 h), the “Product of incubation with beta-D-galactosidase” value was “bright yellow precipitate”. Moreover, the “F: Fluorescence of colonies (hue)” value in [6] was “y-g”. Moreover, in data set [1], the “C: Color of colonies” value is reported as “−”, the “F: Fluorescence of colonies” value is listed as “−” and the “G: Growth of colonies” value is “+”. In addition, in [2], the “C: Color of colonies” value is reported as “−”, the “G: Growth of colonies” value is given as “+” and the “F: Fluorescence of colonies” value is on record as “+^1”. In data set [9], the “Color of colonies UV (366 nm)” value is reported as “Yellow-orange on a dark background”, the “Color of colonies white/visible” value is “Yellow” and the Growth entry is “+”. Besides, in data set [8], the “D: Diffusion around colonies” value is listed as “+/−”, the “G: Growth of colonies” value is “+”, the “I: Intensity of color” value was “+” and the “L: Localization on colonies” value is reported as “+”. Besides, the “S: Size of colonies” value in [8] stood at 0.7 mm.
